Assay results reported in US20130225629A1, “TARGETING PI3K/MTOR SIGNALLING AND NEUTROPHIL RECRUITMENT FOR TREATMENT OF ENTERITIS” (THE UNIVERSITY OF NORTH CAROLINA AT CHAPEL HILL, priority 2012, published 2013).

Experiments:
II-17a mRNA = test: Real-time RT-PCR of colonic II-17a mRNA; format: in vivo, mice
Protocol: (§1) Total RNA from colonic tissue was extracted using TRIzol® kit (Invitrogen, Carlsbad, Calif., United States of America). Complementary DNA was prepared using M-MLV (Invitrogen). Messenger RNA levels of proinflammatory genes were determined using SYBR® Green PCR Master Mix (Applied Biosystems, Carlsbad, Calif., United States of America) on an ABI 7900HT Fast Real-Time PCR System and normalized to Gapdh. The polymerase chain reactions were performed according to the manufacturer's recommendation. The following gene primers were used: Gapdh_forward: 5′-[…]-3′ (SEQ ID NO: 2), Gapdh_reverse: 5′-[…]-3′ (SEQ ID NO: 3), II-1_forward: 5′-[…]-3′ (SEQ ID NO: 4), II-1_reverse: 5′-[…]-3′ (SEQ ID NO: 5), Cxcl2_forward: 5′-[…]-3′ (SEQ ID NO: 6), Cxcl2_reverse: 5′-[…]-3′ (SEQ ID NO: 7), II-17a_forward: 5′-[…]-3′ (SEQ ID NO: 8), II-17a_reverse: 5′-[…]-3′ (SEQ ID NO: 9), II12p40_forward: […] (SEQ ID NO: 10), II12p40_reverse: […] (SEQ ID NO: 11), Tnf forward: […] (SEQ ID NO: 12), Tnf reverse: […] (SEQ ID NO: 13).
(§2) Total RNA from intestinal tissues was extracted using TRIzol® kit (Invitrogen, Carlsbad, Calif., United States of America) following the manufacture's guide. cDNA was reverse-transcribed using M-MLV (Invitrogen). Proinflammatory 111β, Cxcl2, II17a and Tnfα mRNA expression levels were measured using SYBR® Green PCR Master mix (Applied Biosystems, Carlsbad, Calif., United States of America) on an ABI 7900HT Fast Real-Time PCR System and normalized to Gapdh. The PCR primers used were reported previously. (Sun et al., 2012). The PCR reactions were performed for 40 cycles according to the manufacturer's recommendation, and RNA fold changes were calculated using the ΔΔct method.

Cxcl2 mRNA = test: Real-time RT-PCR of colonic Cxcl2 mRNA; format: in vivo, mice
Protocol: as §1, §2

II1β mRNA = test: Real-time RT-PCR of colonic II1β mRNA; format: in vivo, mice
Protocol: as §1, §2

Gr-1+/CD45+ cells = test: Flow cytometry of peripheral blood neutrophils (Gr-1+/CD45+); format: in vivo; settings: rapamycin-treated infected vs untreated infected mice
Protocol: To assess blood neutrophils, mice were sacrificed and peripheral blood was drawn and mixed with an anticoagulant (20 μL 96 mmol/L EDTA). White blood cells were collected following erythrocyte lysis. The cells were then incubated with antibodies against CD45 (PE conjugated), Gr-1 (fluorescein isothiocyanate conjugated) (eBiosciences, San Diego, Calif., United States of America). To analyze the change of CD4^+ cells after antibody-mediated depletion, freshly isolated splenocytes and MLNs from C jejuni-infected mice were then incubated with PE-conjugated antibodies against CD4 (eBiosciences, San Diego, Calif., United States of America). The cells were analyzed on a Cyan flow cytometer (Beckman Coulter, Inc., Brea, Calif., United States of America) to determine the proportion of total immune cells, neutrophils, or CD4^+ T cells, respectively. The results were then analyzed on Summit software (Beckman Coulter, Inc., Brea, Calif., United States of America).

II-12p40 mRNA = test: Real-time RT-PCR of colonic II-12p40 mRNA; format: in vivo, mice; settings: rapamycin treatment
Protocol: as §1

C. jejuni = format: in vivo, mice; settings: colon, rapamycin treatment vs infected untreated mice
From the text: All animal protocols were approved by the Institutional Animal Care and Use Committee of the University of North Carolina at Chapel Hill (Chapel Hill, N.C., United States of America). Germ-free 8 to 12 week old II10^−/−; NF-κBEGFP (129/SvEv; C57BL/6 mixed background) mice were transferred from germ-free isolators and immediately gavaged with 10^9 C. jejuni cfu/mouse (strain 81-176 (Korlath et al., 1985)). Mice were then housed under Specific Pathogen-Free (SPF) conditions and sacrificed at 5 or 12 days. Germ-free II10^−/−; NF-κB^EGFP mice were also gavaged with 10^7 Salmonella typhimurium (S. typhimurium strain CA32) cfu/mouse for 2 days or 10^7 Escherichia coli (E. coli strain NC 101) cfu/mouse for 12 days. Conventionally-derived II10^−/−; NF-κB^EGFP mice were put on an antibiotic cocktail (streptomycin 2 g/L, gentamycin 0.5 g/L, bacteriocin 1 g/L and ciprofloxacin 0.125 g/L) in water for 7 days and antibiotics withdrawn 24 hours prior to infection. The mice were then gavaged with 10^9 C. jejuni cfu/mouse for 14 days. To inhibit mTOR signaling, mice were injected daily intraperitoneally (i.p.) with rapamycin (1.5 mg/kg) (Fisher Scientific, Hampton, N.H., United States of America). At the end of the experiment, mice were euthanized using CO2 intoxication. Colon, mesenteric lymph nodes (MLN) and spleen were collected for further processing RNA, protein or C. jejuni culture on Campylobacter selective blood plates (Remel, Thermo Scientific, Hampton, N.H., United States of America) for 48 h at 37° C. using the GasPak system (Becton Dickinson, Franklin Lakes, N.J., United States of America). […] Colons were fixed in 10% buffered formalin (Fisher Scientific, Hampton, N.H., United States of America) overnight, paraffin-embedded, sectioned, and stained with H&E for histological evaluation. Images were acquired using a DP71 camera and DP Controller 3.1.1.276 (Olympus, Center Valley, Pa., United States of America). Intestinal inflammation was scored by evaluating the degree of lamina propria immune cell infiltration, goblet cell depletion, architectural distortion, as well as crypt hyperplasia, ulceration, and abscesses using a score from 0-4. (Lippert et al., 2009). Cecal and colonic inflammation induced by S. typhimurium was evaluated using a score from 0-13 as described. (Hapfelmeier et al., 2005).
MLN and spleen were aseptically resected. Colon tissue was opened, resected and washed three times in sterile PBS. […] C. jejuni colonies were counted and data presented as colony forming unit (cfu)/g tissue.

IL-1β = test: ELISA of IL-1β secreted from cultured colon explants and MLN; format: in vivo; settings: rapamycin-treated infected mice vs control
Protocol: (§3) Colonic tissue, MLNs, and spleen were weighed, minced with scissors, and incubated in 1 mL 3% fetal bovine serum and 1% antibiotics RPMI medium in a 24-well plate. After 18-hour incubation, medium was collected and centrifuged at 7000 rpm for 5 minutes. Supernatant was collected and stored at −80° C. IL-1β and IL-17 (A) concentrations were assessed by enzyme-linked immunosorbent assay kits (R&D Systems, Minneapolis, Minn., United States of America) following the manufacturer's specification. The IL-17 enzyme-linked immunosorbent assay has no cross-reactivity to IL-17B, C, D, E, and F.

IL-17 = test: ELISA of IL-17 secreted from cultured colon explants and MLN; format: in vivo; settings: rapamycin-treated infected mice vs control
Protocol: as §3

Tnfα mRNA = test: Real-time RT-PCR of colonic Tnfα mRNA; format: in vivo, mice; settings: rapamycin treatment
Protocol: as §1

[1] = wortmannin vs vehicle-treated infected mice
[2] = colon, rapamycin-treated, C. jejuni-infected mice
[3] = supernatant of cultured colon explants

Row | Structure (SMILES) | block of C. jejuni-induced II17a mRNA accumulation (II-17a mRNA; [1]) [%] | block of C. jejuni-induced Cxcl2 mRNA accumulation (Cxcl2 mRNA; [1]) [%] | block of C. jejuni-induced I11β mRNA accumulation (II1β mRNA; [1]) [%] | attenuation of C. jejuni induced II-17a mRNA accumulation (II-17a mRNA; [2]) [%] | decrease of ratio of Gr-1+/CD45+ cells in the blood (Gr-1+/CD45+ cells) [%] | C. jejuni-induced colonic II-12p40 mRNA accumulation (II-12p40 mRNA) | reduction of C. jejuni colonic invasion (culture count) (C. jejuni) [%] | attenuation of C. jejuni induced Cxcl2 mRNA accumulation (Cxcl2 mRNA; [2]) [%] | reduction of IL-1β production (IL-1β; MLN) [%] | reduction of IL-1β production (IL-1β; [3]) [%] | attenuation of C. jejuni induced I1-1β mRNA accumulation (II1β mRNA; [2]) [%] | attenuation of IL-17 production (IL-17; MLN) [%] | reduction of secreted IL-17 (IL-17; [3]) [%] | C. jejuni-induced colonic Tnfα mRNA accumulation (Tnfα mRNA)
1 | COC[C@H]1OC(=O)c2coc3c2[C@@]1(C)C1=C(C3=O)[C@@H]2CCC(=O)[C@@]2(C)C[C@H]1OC(C)=O [wortmannin] | 78 | 77 | 50 |  |  |  |  |  |  |  |  |  |  | 
2 | CO[C@H]1C[C@@H]2CC[C@@H](C)[C@@](O)(O2)C(=O)C(=O)N2CCCC[C@H]2C(=O)O[C@H]([C@H](C)C[C@@H]2CC[C@@H](O)[C@H](OC)C2)CC(=O)[C@H](C)/C=C(\C)[C@@H](O)[C@@H](OC)C(=O)[C@H](C)C[C@H](C)/C=C/C=C/C=C/1C [rapamycin] |  |  |  | 92 | 41 | not significantly inhibited | 90 | 75 | 41 | 59 | 79 | 82 | 94 | not significantly inhibited
